Measurements published in patent publication US8658639B2, “N-substituted-cyclic amino derivative” (Dainippon Sumitomo Pharma Co., Ltd, priority 2009, dated 2014).

Assays:
[1] = test system: abdominal skin of CD male rats; assay: Testing for irritation by single subcutaneous administration to rats; format: in vivo; parameters: key: — No inflammation; Amount of Inflammation: * < ** < *** < ****; Amount of Inflammation: * < ** < *** < ****; Amount of Inflammation: * < ** < *** < ****; Amount of Inflammation: * < ** < *** < ****; details: single subcutaneous administration 0.1 ml, 2% in DMSO and saline
Procedure: Experiment 2: Testing for Irritation by Single Subcutaneous Administration to Rats
A test compound was measured and dissolved in DMSO and a saline solution in a concentration of 2%.

Recombinant human renin = molecular target: T1, Recombinant human renin (Homo sapiens, UniProt P00797); assay: In vitro renin inhibitory activity assay; format: biochemical; details: recombinant human renin 4.2 ng/mL, substrate 4 μM, 37° C., one hour, pH 7.4
T1 sequence (P00797 67-406): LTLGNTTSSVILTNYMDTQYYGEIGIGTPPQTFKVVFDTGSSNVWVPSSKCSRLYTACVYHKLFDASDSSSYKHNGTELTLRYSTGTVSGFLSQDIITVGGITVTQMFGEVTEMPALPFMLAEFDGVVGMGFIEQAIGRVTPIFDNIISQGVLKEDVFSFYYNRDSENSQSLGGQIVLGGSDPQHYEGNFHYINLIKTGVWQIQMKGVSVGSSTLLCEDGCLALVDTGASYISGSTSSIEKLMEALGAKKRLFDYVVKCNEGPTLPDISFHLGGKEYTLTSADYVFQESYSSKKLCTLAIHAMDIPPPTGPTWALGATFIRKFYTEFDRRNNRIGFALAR
Procedure: Experiment 1: In Vitro Renin Inhibitory Activity Assay
Recombinant human renin (4.2 ng/mL) was reacted in 0.1M HEPES buffer (pH 7.4) containing 0.1M NaCl, 1 mM EDTA and 0.1 mg/mL BSA together with a substrate and a test compound at 37° C. for one hour. As the substrate, Arg-Glu(EDANS)-Ile-His-Pro-Phe-His-Leu-Val-Ile-His-Thr-Lys(DABCYL)-Arg (SEQ ID NO: 1) or DABCYL-γ-Abu-Ile-His-Pro-Phe-His-Leu-Val-Ile-His-Thr-EDANS (SEQ ID NO: 2) was added in such an amount so that the final concentration thereof became 4 μM. The elevated fluorescence intensity at the exciting wavelength 340 nm and the fluorescence wavelength 500 nm was measured by a fluorescence plate reader. The concentration of a test compound to be needed to inhibit an enzyme activity in the presence of a test compound in several concentrations by 50% was calculated as an IC50 value. The test compounds were diluted in DMSO and used in this Experiment.

For `CCC(=O)NCCN1C(=O)C(C)(C)Oc2cc(C)c(C(=O)N(C(C)C)C3CCCN(C(=O)OC(C)OC(=O)C4CCOCC4)C3)cc21` (single isomer, unassigned) [Example 87], the “Observation at Administration Site, One day after administration” value (from here on “Observation … One day after administration”) [1] was “—”, the “Observation at Administration Site, Three days after administration” value (from here on “Observation … Three days after administration”) [1] was “—” and the IC50 (Recombinant human renin) was 9.6 nM.

With `COCCCCN1C(=O)C(C)(C)Oc2cc(C(F)(F)F)c(C(=O)N(C(C)C)[C@@H]3CCCNC3)cc21.Cl` [Comparative Example 1, 4-(4-methoxybutyl)-2,2-dimethyl-3-oxo-N-[(3R)-3-piperidinyl]-N-(2-propanyl)-7-(trifluoromethyl)-3,4-dihydro-2H-1,4-benzoxazine-6-carboxamide hydrochloride, reference compound] the “Observation … One day after administration” value [1] was “***” and the “Observation … Three days after administration” value [1] was “****”.

For `CCC(=O)NCCN1C(=O)C(C)(C)Oc2cc(C(F)(F)F)c(C(=O)N(C(C)C)[C@@H]3CCCNC3)cc21.Cl` [Comparative Example 2, 2,2-dimethyl-3-oxo-N-[(3R)-3-piperidinyl]-4-[2-(propanoylamino)ethyl]-N-(2-propanyl)-7-(trifluoromethyl)-3,4-dihydro-2H-1,4-benzoxazine-6-carboxamide hydrochloride, reference compound], the “Observation … One day after administration” value [1] was “****” and the “Observation … Three days after administration” value [1] was “****”.

For `CCC(=O)NCCN1C(=O)C2(CCC2)Oc2cc(C)c(C(=O)N(C(C)C)[C@@H]3CCCNC3)cc21.Cl` [Comparative Example 3, N-isopropyl-7-methyl-3-oxo-N-[(3R)-piperidin-3-yl]-4-[2-(propionylamino)ethyl]-3,4-dihydrospiro[1,4-benzoxazine-2,1′-cyclobutane]-6-carboxamide hydrochloride, reference compound], the “Observation … One day after administration” value [1] was “****” and the “Observation … Three days after administration” value [1] was “****”.

In the case of `CCC(=O)NCCN1C(=O)C(C)(C)Oc2cc(C)c(C(=O)N(C(C)C)[C@@H]3CCCN(C(=O)OCc4oc(=O)oc4C)C3)cc21` [Example 2, (5-Methyl-2-oxo-1,3-dioxol-4-yl)methyl (3R)-3-[isopropyl({2,2,7-trimethyl-3-oxo-4-[2-(propionylamino)ethyl]-3,4-dihydro-2H-1,4-benzoxazin-6-yl}carbonyl)amino]piperidine-1-carboxylate], the “Observation … One day after administration” value [1] is reported as “—”, the “Observation … Three days after administration” value [1] is reported as “—” and the IC50 (Recombinant human renin) is reported as 5.1 nM.

For `CCC(=O)NCCN1C(=O)C(C)(C)Oc2cc(C)c(C(=O)N(C(C)C)[C@@H]3CCCN(C(=O)O[C@H](C)OC(=O)C(C)C)C3)cc21` [Example 67], the “Observation … One day after administration” value [1] was “**”, the “Observation … Three days after administration” value [1] was “—” and the IC50 (Recombinant human renin) was 250 nM.

`Cc1oc(=O)oc1COC(=O)N1CCC[C@@H](N(C(=O)c2cc3c(cc2C(F)(F)F)OC2(CC2)C(=O)N3CCNC(=O)C(F)F)C(C)C)C1` [Example 71] gave an IC50 (Recombinant human renin) of 2.5 nM.

`CC(OC(=O)C(C)C)OC(=O)N1CCCC(N(C(=O)c2cc3c(cc2C(F)(F)F)OC2(CC2)C(=O)N3CCNC(=O)C(F)F)C(C)C)C1` (stereo not drawn) [Example 72] gave an IC50 (Recombinant human renin) of 22 nM.

In the case of `CCC(=O)NCCN1C(=O)C(C)(COC)Oc2cc(C(F)(F)F)c(C(=O)N(C(C)C)C3CCCN(C(=O)OC(C)OC(=O)C(C)C)C3)cc21` (stereo not drawn) [Example 74], the IC50 (Recombinant human renin) is reported as 22 nM.

`CCC(=O)NCCN1C(=O)C(C)(COC)Oc2cc(C(F)(F)F)c(C(=O)N(C(C)C)C3CCCN(C(=O)OC(OC(=O)CC)C(C)C)C3)cc21` (stereo not drawn) [Example 75] showed an IC50 (Recombinant human renin) of 0.74 nM.

`CCC(=O)NCCN1C(=O)C(C)(COC)Oc2cc(C(F)(F)F)c(C(=O)N(C(C)C)C3CCCN(C(=O)OC(OC(=O)C(C)C)C(C)C)C3)cc21` (stereo not drawn) [Example 76] was tested, and the IC50 (Recombinant human renin) was 0.56 nM.

Compound `CCC(=O)NCCN1C(=O)C2(CCC2)Sc2cc(C)c(C(=O)N(C(C)C)[C@@H]3CCCN(C(=O)OCc4oc(=O)oc4C)C3)cc21` [Example 78] has an IC50 (Recombinant human renin) of 20 nM.

With `CCC(=O)NCCN1C(=O)C2(CCC2)Oc2cc(C)c(C(=O)N(C(C)C)C3CCCN(C(=O)OC(C)OC(=O)c4ccc(C)cc4)C3)cc21` (stereo not drawn) [Example 79, 1-{[(4-Methylphenyl)carbonyl]oxy}ethyl 3-[({7-methyl-3-oxo-4-[2-(propanoylamino)ethyl]-3,4-dihydrospiro[1,4-benzoxazine-2,1′-cyclobutan]-6-yl}carbonyl)(2-propanyl)amino]-1-piperidinecarboxylate] the “Observation … One day after administration” value [1] was “***”, the “Observation … Three days after administration” value [1] was “***” and the IC50 (Recombinant human renin) was 5.3 nM.

With `CCC(=O)NCCN1C(=O)C2(CCC2)Oc2cc(C)c(C(=O)N(C(C)C)[C@@H]3CCCN(C(=O)OCc4oc(=O)oc4C)C3)cc21` [Example 81] the “Observation … One day after administration” value [1] was “**”, the “Observation … Three days after administration” value [1] was “—” and the IC50 (Recombinant human renin) was 1.7 nM.

For `CCC(=O)NCCN1C(=O)C2(CCC2)Oc2cc(C)c(C(=O)N(C(C)C)[C@@H]3CCCN(C(=O)O[C@H](C)OC(=O)C(C)C)C3)cc21` [Example 82], the “Observation … One day after administration” value [1] was “**”, the “Observation … Three days after administration” value [1] was “—” and the IC50 (Recombinant human renin) was 530 nM.

Work on `CCC(=O)NCCN1C(=O)C2(CCC2)Oc2cc(C)c(C(=O)N(C(C)C)[C@@H]3CCCN(C(=O)O[C@@H](C)OC(=O)C(C)C)C3)cc21` [Example 83] yielded an IC50 (Recombinant human renin) of 505 nM.

With `CCC(=O)NCCN1C(=O)C2(CCC2)Oc2cc(C)c(C(=O)N(C(C)C)C3CCCN(C(=O)OC(C)OC(=O)CCCOC)C3)cc21` (stereo not drawn) [Example 84] the IC50 (Recombinant human renin) was 21 nM.

`CCC(=O)NCCN1C(=O)C(C)(COC)Oc2cc(C)c(C(=O)N(C(C)C)C3CCCN(C(=O)OC(C)OC(=O)CC)C3)cc21` (stereo not drawn) [Example 86] showed an IC50 (Recombinant human renin) of 14 nM.

In the case of `CCC(=O)NCCN1C(=O)C2(CCC2)Oc2cc(C)c(C(=O)N(C(C)C)[C@@H]3CCCN(C(=O)OC(C)OC(=O)c4cccnc4)C3)cc21` (stereo partly drawn) [Example 89, 1-[({(3R)-3-[({7-Methyl-3-oxo-4-[2-(propanoylamino)ethyl]-3,4-dihydrospiro[1,4-benzoxazine-2,1′-cyclobutan]-6-yl}carbonyl)(2-propanyl)amino]-1-piperidinyl}carbonyl)oxy]ethyl 3-pyridine carboxylate], the IC50 (Recombinant human renin) is reported as 1.9 nM.

Work on `CCOC(=O)O[C@@H](C)OC(=O)N1CCC[C@@H](N(C(=O)c2cc3c(cc2C)OC(C)(C)C(=O)N3CCNC(=O)CC)C(C)C)C1` [Example 90] yielded an IC50 (Recombinant human renin) of 730 nM.

`CCOC(=O)O[C@H](C)OC(=O)N1CCC[C@@H](N(C(=O)c2cc3c(cc2C)OC(C)(C)C(=O)N3CCNC(=O)CC)C(C)C)C1` [Example 91] showed an IC50 (Recombinant human renin) of 710 nM.

`CCC(=O)NCCN1C(=O)[C@](C)(COC)Oc2cc(C)c(C(=O)N(C(C)C)[C@@H]3CCCN(C(=O)O[C@H](C)OC(=O)C(C)C)C3)cc21` [Example 93] was tested, and the “Observation … One day after administration” value [1] was “—”, the “Observation … Three days after administration” value [1] was “—” and the IC50 (Recombinant human renin) was 1900 nM.

In the case of `CCC(=O)NCCN1C(=O)[C@](C)(COC)Oc2cc(C)c(C(=O)N(C(C)C)[C@@H]3CCCN(C(=O)O[C@@H](C)OC(=O)C(C)C)C3)cc21` [Example 94], the IC50 (Recombinant human renin) is reported as 1890 nM.

In the case of `CCC(=O)NCCN1C(=O)C2(CCC2)Oc2cc(C)c(C(=O)N(C(C)C)C3CCCN(C(=O)OC(C)OC(=O)C(F)F)C3)cc21` (stereo not drawn) [Example 97], the IC50 (Recombinant human renin) is reported as 0.13 nM.

Compound `CCC(=O)NCCN1C(=O)C(C)(C)Oc2cc(C)c(C(=O)N(C(C)C)C3CCCN(C(=O)OC(C)OC(=O)CC4CC4)C3)cc21` (stereo not drawn) [Example 98] has an IC50 (Recombinant human renin) of 9.1 nM.
